Data as given in US11999732B2, “P2X3 receptor antagonists” (RECORDATI INDUSTRIA CHIMICA E FARMACEUTICA SPA, priority 2018, dated 2024).
pIC50: −log10 of the molar value. Read-outs that look alike come from different tables or passages of the source.

Target: T1, human P2X3 receptor (Homo sapiens, UniProt P56373)
T1 construct: expressed in transfected cells; host or cells: CHO-K1
T1 sequence (P56373 1-397): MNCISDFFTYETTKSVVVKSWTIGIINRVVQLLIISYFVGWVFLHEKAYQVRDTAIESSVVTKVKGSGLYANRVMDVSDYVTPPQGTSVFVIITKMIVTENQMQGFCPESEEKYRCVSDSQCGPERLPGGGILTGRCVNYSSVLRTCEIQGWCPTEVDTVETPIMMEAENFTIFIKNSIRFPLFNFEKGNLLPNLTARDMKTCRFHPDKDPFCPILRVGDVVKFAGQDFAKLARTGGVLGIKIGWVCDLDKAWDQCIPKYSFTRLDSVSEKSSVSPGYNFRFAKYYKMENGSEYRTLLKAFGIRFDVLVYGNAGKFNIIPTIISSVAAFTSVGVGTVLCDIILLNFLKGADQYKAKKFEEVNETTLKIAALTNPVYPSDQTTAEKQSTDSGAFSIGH
Experiment: Calcium luminescence (photoprotein) assay in CHO-K1 cells co-expressing human P2X3 receptor, α,β-Met-ATP stimulation, FLEXSTATION readout
Assay type: cell-based
Conditions: human P2X3 receptor antagonist activity, CHO-K1 cells, α,β-Met-ATP, read-out: h-P2X3 IC50
Procedure, shortened: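 CHO-K1 cells co-expressing human P2X3 and a Ca2+-sensitive photoprotein, loaded with coelenterazine in Tyrode's buffer (pH 7.4) for 4 h at 37 °C. Compounds injected 4 min before α,β-Met-ATP stimulation; luminescence recorded, IC50 and pseudo-Hill slope from nonlinear regression of inhibition curves.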

| SMILES | pIC50 (Table 8) | pIC50 (Table 9) |
| --- | --- | --- |
| CC(C)Cc1nnc2c3ncc(N4CCOCC4)cc3c(Cc3ccc(Cl)cc3)nn12 [Example 133, 6-(4-chlorobenzyl)-3-(2-methylpropyl)-8-(morpholin-4-yl)pyrido[2,3-d][1,2,4]triazolo[4,3-b]pyridazine] | 6.66 | – |
| Cc1ccc(Cc2nn3c(CC4CCCCC4)nnc3c3ncccc23)cc1 [Example 136, 3-(cyclohexylmethyl)-6-(4-methylbenzyl)pyrido[2,3-d][1,2,4]triazolo[4,3-b]pyridazine] | 5.75 | – |
| CC(C)(C)OC(=O)NC1CCN(c2cnc3c(c2)c(Cc2ccc(Cl)cc2)nn2c(C(C)(C)C)nnc32)CC1 [Example 138, tert-butyl n-[1-[5-tert-butyl-8-(4-chlorobenzyl)-3,4,6,7,13-pentazatricyclo[7.4.0.02,6]trideca-1(9),2,4,7,10,12-hexaen-11-yl]-4-piperidyl]carbamate] | 5.48 | – |
| CC(C)(C)c1nnc2c3ncc(N4CCC(N)CC4)cc3c(Cc3ccc(Cl)cc3)nn12 [Example 139, 1-[5-tert-butyl-8-(4-chlorobenzyl)-3,4,6,7,13-pentazatricyclo[7.4.0.02,6]trideca-1(9),2,4,7,10,12-hexaen-11-yl]piperidin-4-amine] | 6.42 | – |
| CC(C)(C)c1nnc2c3ncc(N4CCC(O)CC4)cc3c(Cc3ccc(Cl)cc3)nn12 [Example 140, 1-[5-tert-butyl-8-(4-chlorobenzyl)-3,4,6,7,13-pentazatricyclo[7.4.0.02,6]trideca-1(9),2,4,7,10,12-hexaen-11-yl]piperidin-4-ol] | 6.51 | – |
| COc1cc(CN2C(=O)N3CC(C)(C)CN=C3c3ncc(NCCO)cc32)cc(OC)c1 [Example 144, 5-(3,5-dimethoxybenzyl)-3-[(2-hydroxyethyl)amino]-9,9-dimethyl-5,8,9,10-tetrahydro-6H-pyrido[2,3-e]pyrimido[1,2-c]pyrimidin-6-one] | – | 5.61 |
| COc1cc(CN2C(=O)N3CC(C)CN=C3c3ncc(N4CCOCC4)cc32)cc(OC)c1 (centres unmarked) [Example 145, 5-(3,5-dimethoxybenzyl)-9-methyl-3-(morpholin-4-yl)-5,8,9,10-tetrahydro-6H-pyrido[2,3-e]pyrimido[1,2-c]pyrimidin-6-one] | – | 5.75 |
| COc1cc(CN2C(=O)N3CC(C)(C)CN=C3c3ncc(N4CCOCC4)cc32)cc(OC)c1 [Example 147, 5-(3,5-dimethoxybenzyl)-9,9-dimethyl-3-(morpholin-4-yl)-5,8,9,10-tetrahydro-6H-pyrido[2,3-e]pyrimido[1,2-c]pyrimidin-6-one] | – | 5.61 |
| CCC1CCN=C2c3ncc(N4CCOCC4)cc3N(Cc3ccc(Cl)cc3)C(=O)N21 (centres unmarked) [Example 155, 5-(4-chlorobenzyl)-8-ethyl-3-(morpholin-4-yl)-5,8,9,10-tetrahydro-6H-pyrido[2,3-e]pyrimido[1,2-c]pyrimidin-6-one] | – | 5.66 |
| COc1ccc(Cn2c(=O)n3nc(CC(C)C)nc3c3ncc(N4CCOCC4)cc32)cc1 [Example 156, 6-(4-methoxybenzyl)-2-(2-methylpropyl)-8-(morpholin-4-yl)pyrido[2,3-e][1,2,4]triazolo[1,5-c]pyrimidin-5(6H)-one] | – | 6.22 |
| COc1cc(CN2C(=O)N3CC(C)(C)N=C3c3ncc(N4CCOCC4)cc32)cc(OC)c1 [Example 161, 6-(3,5-dimethoxybenzyl)-2,2-dimethyl-8-(morpholin-4-yl)-2,6-dihydroimidazo[1,2-c]pyrido[2,3-e]pyrimidin-5(3H)-one] | – | 5.37 |
| CC(C)C1C(=O)N=C2c3ncc(N4CCOCC4)cc3N(Cc3ccc(Cl)cc3)C(=O)N21 (centres unmarked) [Example 163, 6-(4-chlorobenzyl)-8-(morpholin-4-yl)-3-(propan-2-yl)imidazo[1,2-c]pyrido[2,3-e]pyrimidine-2,5(3H,6H)-dione] | – | 6.56 |
| COc1ccc(CN2C(=O)N3C(=NC(=O)C3C(C)C)c3ncc(N4CCOCC4)cc32)cc1 (centres unmarked) [Example 164, 6-(4-methoxybenzyl)-8-(morpholin-4-yl)-3-(propan-2-yl)imidazo[1,2-c]pyrido[2,3-e]pyrimidine-2,5(3H,6H)-dione] | – | 6.73 |
| CCN(CC)c1cnc2c(c1)N(Cc1ccc(OC)cc1)C(=O)N1C2=NC(=O)C1C(C)(C)C (centres unmarked) [Example 165, 3-tert-butyl-8-(diethylamino)-6-(4-methoxybenzyl)imidazo[1,2-c]pyrido[2,3-e]pyrimidine-2,5(3H,6H)-dione] | – | 6.15 |
| CC(C)c1nnc2c3ncc(N4CCC(O)CC4)cc3n(Cc3ccc(Cl)cc3)c(=O)n12 [Example 171, 6-(4-chlorobenzyl)-8-(4-hydroxypiperidin-1-yl)-3-(propan-2-yl)pyrido[2,3-e][1,2,4]triazolo[4,3-c]pyrimidin-5(6H)-one] | – | 6.16 |
| CC(C)(C)c1nnc2c3ncc(N4CCOCC4)cc3n(Cc3ccc(Cl)cn3)c(=O)n12 [Example 173, 3-tert-butyl-6-[(5-chloropyridin-2-yl)methyl]-8-(morpholin-4-yl)pyrido[2,3-e][1,2,4]triazolo[4,3-c]pyrimidin-5(6H)-one] | – | 8.59 |
| O=c1n(Cc2ccc(Cl)cc2)c2cc(N3CCOCC3)cnc2c2nnc(CC3CCOCC3)n12 [Example 186, 6-(4-chlorobenzyl)-8-(morpholin-4-yl)-3-(tetrahydro-2H-pyran-4-ylmethyl)pyrido[2,3-e][1,2,4]triazolo[4,3-c]pyrimidin-5(6H)-one] | – | 6.54 |

Second part, the molecule after the results:

| pIC50 (Table 8) | pIC50 (Table 9) | SMILES |
| --- | --- | --- |
| 6.63 | – | Cc1ccc(Cc2nn3c(CC4CCCCC4)nnc3c3ncc(N4CCOCC4)cc23)cc1 [Example 137, 3-(cyclohexylmethyl)-6-(4-methylbenzyl)-8-(morpholin-4-yl)pyrido[2,3-d][1,2,4]triazolo[4,3-b]pyridazine] |
| – | 5.65 | CC1(C)CN=C2c3ncc(NCCO)cc3N(Cc3ccc(Cl)cc3)C(=O)N2C1 [Example 143, 5-(4-chlorobenzyl)-3-[(2-hydroxyethyl)amino]-9,9-dimethyl-5,8,9,10-tetrahydro-6H-pyrido[2,3-e]pyrimido[1,2-c]pyrimidin-6-one] |
| – | 6.03 | CCC1CCN=C2c3ncc(N4CCOCC4)cc3N(Cc3cc(OC)cc(OC)c3)C(=O)N21 (centres unmarked) [Example 151, 5-(3,5-dimethoxybenzyl)-8-ethyl-3-(morpholin-4-yl)-5,8,9,10-tetrahydro-6H-pyrido[2,3-e]pyrimido[1,2-c]pyrimidin-6-one] |
| – | 5.98 | CCC1CCN2C(=O)N(Cc3ccc(Cl)cc3)c3cc(N4CCOCC4)cnc3C2=N1 (centres unmarked) [Example 154, 5-(4-chlorobenzyl)-10-ethyl-3-(morpholin-4-yl)-5,8,9,10-tetrahydro-6H-pyrido[2,3-e]pyrimido[1,2-c]pyrimidin-6-one] |
| – | 6.31 | COc1ccc(Cn2c(=O)n3nc(C(C)(C)C)nc3c3ncc(N4CCOCC4)cc32)cc1 [Example 157, 2-tert-butyl-6-(4-methoxybenzyl)-8-(morpholin-4-yl)pyrido[2,3-e][1,2,4]triazolo[1,5-c]pyrimidin-5(6H)-one] |
| – | 5.86 | COc1ncc2c(n1)c1nnc(C(C)(C)C)n1c(=O)n2Cc1ccc(Cl)cc1 [Example 168, 3-tert-butyl-6-(4-chlorobenzyl)-9-methoxypyrimido[4,5-e][1,2,4]triazolo[4,3-c]pyrimidin-5(6H)-one] |
| – | 7.11 | COc1ccc(Cn2c(=O)n3c(C4(C)CC4)nnc3c3ncc(N4CCOCC4)cc32)cc1 [Example 174, 6-(4-methoxybenzyl)-3-(1-methylcyclopropyl)-8-(morpholin-4-yl)pyrido[2,3-e][1,2,4]triazolo[4,3-c]pyrimidin-5(6H)-one] |
| – | 5.59 | COc1ccc(Cn2c(=O)n3c(C(C)(C)C)nnc3c3ncc(N)cc32)cc1 [Example 176, 8-amino-3-tert-butyl-6-(4-methoxybenzyl)pyrido[2,3-e][1,2,4]triazolo[4,3-c]pyrimidin-5(6H)-one] |
| – | 6.28 | O=c1n(Cc2ccc(Cl)cc2)c2cc(N3CCOCC3)cnc2c2nnc(COC3CCOCC3)n12 [Example 188, 6-(4-chlorobenzyl)-8-(morpholin-4-yl)-3-[(tetrahydro-2H-pyran-4-yloxy)methyl]pyrido[2,3-e][1,2,4]triazolo[4,3-c]pyrimidin-5(6H)-one] |
